Measured values published in ChEMBL document CHEMBL4765275, “Discovery of novel tertiary amide derivatives as NEDDylation pathway activators to inhibit the tumor progression in vitro and in vivo” (Eur J Med Chem, 2020).
Activity calls are given as the source filed them. The calls are words filed in the database; no cut-off is given here.

Legend:
MGC-803 [1] = assay: Induction of apoptosis in human MGC-803 cells assessed as upregulation of Bad expression at 50 to 150 nmol/L measured after 48 hrs by Western blot analysis; type: functional, cell-based; details: dose 50-150 nmol/L
MGC-803 [2] = assay: Antiproliferative activity against human MGC-803 cells assessed as cell viability measured after 48 hrs by MTT assay relative to control; type: functional
[3] = target: T1, NEDD8-activating enzyme E1 regulatory subunit (Homo sapiens) (UniProt Q13564); assay: Activation of NAE1-mediated neddylation in human MGC-803 cells assessed as increase in Nedd8 neddylation at 50 to 150 nmol/L measured after 24 hrs by Western blot analysis; type: cell-based; details: filed as activator, dose 50-150 nmol/L
T1 sequence (whole entry): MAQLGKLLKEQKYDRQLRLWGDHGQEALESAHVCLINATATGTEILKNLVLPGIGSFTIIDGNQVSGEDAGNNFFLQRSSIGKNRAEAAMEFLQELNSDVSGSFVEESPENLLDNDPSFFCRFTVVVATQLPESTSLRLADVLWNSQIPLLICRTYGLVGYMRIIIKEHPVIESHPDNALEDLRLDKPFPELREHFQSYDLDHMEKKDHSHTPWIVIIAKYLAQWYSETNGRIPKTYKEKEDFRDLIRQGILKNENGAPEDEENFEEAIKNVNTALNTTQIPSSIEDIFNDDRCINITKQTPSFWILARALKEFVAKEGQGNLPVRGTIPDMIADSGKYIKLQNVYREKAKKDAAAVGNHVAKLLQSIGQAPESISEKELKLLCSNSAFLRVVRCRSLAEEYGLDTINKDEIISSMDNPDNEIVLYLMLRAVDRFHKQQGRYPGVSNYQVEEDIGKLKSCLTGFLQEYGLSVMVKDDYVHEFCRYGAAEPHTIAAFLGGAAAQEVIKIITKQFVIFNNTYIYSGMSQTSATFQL

MGC-803 [4] = assay: Cell cycle arrest in human MGC-803 cells assessed as accumulation at S phase at 150 nmol/L measured after 48 hrs by propidium iodide staining based flow cytometry (reference value: 34.48%); type: functional
MGC-803 [5] = assay: Induction of apoptosis in human MGC-803 cells assessed as necrotic cells at 100 nmol/L measured after 48 hrs by Annexin V-FITC/propidium iodide staining based flow cytometry (reference value: 0.5%); type: functional
MGC-803 [6] = assay: Induction of apoptosis in human MGC-803 cells assessed as early apoptotic cells at 150 nmol/L measured after 48 hrs by Annexin V-FITC/propidium iodide staining based flow cytometry (reference value: 2.2%); type: functional
MGC-803 [7] = assay: Induction of apoptosis in human MGC-803 cells assessed as increase in cleaved PARP expression at 150 nmol/L measured after 24 hrs in presence of NEDDylation inhibitor MLN4924 by Western blot analysis; type: functional, cell-based
MGC-803 [8] = assay: Induction of apoptosis in human MGC-803 cells assessed as down regulation of Bcl-xL expression at 50 to 150 nmol/L measured after 48 hrs by Western blot analysis; type: functional, cell-based; details: dose 50-150 nmol/L
MGC-803 [9] = assay: Induction of apoptosis in human MGC-803 cells assessed as viable cells at 75 nmol/L measured after 48 hrs by Annexin V-FITC/propidium iodide staining based flow cytometry (reference value: 91.7%); type: functional; details: read-out: Activity
MGC-803 [10] = assay: Induction of morphological changes in human MGC-803 cells assessed as cell rounding at 50 to 150 nmol/L measured after 48 hrs by bright field microscopic analysis; type: functional, cell-based; details: dose 50-150 nmol/L
MGC-803 [11] = assay: Antitumor activity against human MGC-803 cells xenografted in mouse assessed as reduction in tumor weight at 50 mg/kg, sc measured after 28 days relative to control; type: functional; parameters: scale not given: the % may be the effect or the level left; details: time 28 day
MGC-803 [12] = assay: Induction of apoptosis in human MGC-803 cells assessed as down regulation of c-IAP1 expression at 50 to 150 nmol/L measured after 48 hrs by Western blot analysis; type: functional, cell-based; details: dose 50-150 nmol/L
MGC-803 [13] = assay: Induction of morphological changes in human MGC-803 cells assessed as increase in cell debris at 50 to 150 nmol/L measured after 48 hrs by bright field microscopic analysis; type: functional, cell-based; details: dose 50-150 nmol/L
[14] = target: T1, NEDD8-activating enzyme E1 regulatory subunit (Homo sapiens); assay: Stabilization of NAE1 (unknown origin) at 150 nmol/L by CETSA; details: filed as activator
MGC-803 [15] = assay: Induction of apoptosis in human MGC-803 cells assessed as late apoptotic cells at 75 nmol/L measured after 48 hrs by Annexin V-FITC/propidium iodide staining based flow cytometry (reference value: 5.6%); type: functional
[16] = target: T1, NEDD8-activating enzyme E1 regulatory subunit (Homo sapiens); assay: Activation of NAE1-mediated neddylation in human MGC-803 cells assessed as increase in Nedd8-[…] adduct formation at 50 to 150 nmol/L measured after 24 hrs by Western blot analysis; type: cell-based; details: filed as activator, dose 50-150 nmol/L
MGC-803 [17] = assay: Cell cycle arrest in human MGC-803 cells assessed as accumulation at G2 phase at 150 nmol/L measured after 48 hrs by propidium iodide staining based flow cytometry (reference value: 24.91%); type: functional
MGC-803 [18] = assay: Antiproliferative activity against human MGC-803 cells measured after 48 hrs by MTT assay; type: functional, cell-based
MGC-803 [19] = assay: Cell cycle arrest in human MGC-803 cells assessed as accumulation at G2 phase at 100 nmol/L measured after 48 hrs by propidium iodide staining based flow cytometry (reference value: 24.91%); type: functional
MGC-803 [20] = assay: Induction of apoptosis in human MGC-803 cells assessed as increase in activated caspase-8 expression at 50 to 150 nmol/L measured after 48 hrs by Western blot analysis; type: functional, cell-based; details: dose 50-150 nmol/L
MGC-803 [21] = assay: Induction of apoptosis in human MGC-803 cells assessed as viable cells at 150 nmol/L measured after 48 hrs by Annexin V-FITC/propidium iodide staining based flow cytometry (reference value: 91.7%); type: functional; details: read-out: Activity
MGC-803 [22] = assay: Cell cycle arrest in human MGC-803 cells assessed as accumulation at G1 phase at 50 nmol/L measured after 48 hrs by propidium iodide staining based flow cytometry (reference value: 40.61%); type: functional
MGC-803 [23] = assay: Induction of apoptosis in human MGC-803 cells assessed as early apoptotic cells at 50 nmol/L measured after 48 hrs by Annexin V-FITC/propidium iodide staining based flow cytometry (reference value: 2.2%); type: functional
MGC-803 [24] = assay: Induction of apoptosis in human MGC-803 cells assessed as upregulation of FADD expression at 50 to 150 nmol/L measured after 48 hrs by Western blot analysis; type: functional, cell-based; details: dose 50-150 nmol/L
MGC-803 [25] = assay: Induction of morphological changes in human MGC-803 cells assessed as nuclear condensation at 50 to 150 nmol/L measured after 48 hrs by DAPI staining based assay; type: functional, cell-based; details: dose 50-150 nmol/L
MGC-803 [26] = assay: Induction of apoptosis in human MGC-803 cells assessed as down regulation of c-IAP1 expression at 150 nmol/L measured after 24 hrs in presence of protein synthesis inhibitor CHX by Western blot analysis; type: functional, cell-based
MGC-803 [27] = assay: Induction of apoptosis in human MGC-803 cells assessed as necrotic cells at 50 nmol/L measured after 48 hrs by Annexin V-FITC/propidium iodide staining based flow cytometry (reference value: 0.5%); type: functional
MGC-803 [28] = assay: Induction of apoptosis in human MGC-803 cells assessed as down regulation of XIAP expression at 50 to 150 nmol/L measured after 48 hrs by Western blot analysis; type: functional, cell-based; details: dose 50-150 nmol/L
MGC-803 [29] = assay: Induction of apoptosis in human MGC-803 cells assessed as early apoptotic cells at 75 nmol/L measured after 48 hrs by Annexin V-FITC/propidium iodide staining based flow cytometry (reference value: 2.2%); type: functional

In the case of `COc1ccc(CN(C(=O)Cc2cccs2)c2cc(OC)c(OC)c(OC)c2)cc1`, the Activity (MGC-803 [1]) is reported as “Active”, the Activity (MGC-803 [2]) is reported as 12.1% and the Activity [3] is reported as “Active”. It also gave an Activity (MGC-803 [4]) of 16.21%, an Activity (MGC-803 [5]) of 2.5% and an Activity (MGC-803 [6]) of 39.9%. For the same compound, the Activity (MGC-803 [7]) was “inactive”, the Activity (MGC-803 [8]) was “Active” and the viability at 0.075 µM (MGC-803 [9]) was 74.4%. For the same compound, the Activity (MGC-803 [10]) was “Active”, the Activity (MGC-803 [11]) was 36% and the Activity (MGC-803 [12]) was “Active”. For the same compound, the Activity (MGC-803 [13]) was “Active”, the Activity [14] was “Active” and the Activity (MGC-803 [15]) was 11%. For the same compound, the Activity [16] was “Active”, the Activity (MGC-803 [17]) was 52.97% and the Activity (MGC-803 [18]) was “Dose-dependent effect”. The IC50 (MGC-803 [18]; MGC-803, 48 h) was 90 nM, the Activity (MGC-803 [19]) was 36.03% and the Activity (MGC-803 [20]) was “Active”. The viability at 0.15 µM (MGC-803 [21]) was 8.6%, the Activity (MGC-803 [22]) was 37.2% and the Activity (MGC-803 [23]) was 5.2%. For the same compound, the Activity (MGC-803 [24]) was “Active”, the Activity (MGC-803 [25]) was “Active” and the Activity (MGC-803 [26]) was “Active”. The Activity (MGC-803 [27]) was 0.6%, the Activity (MGC-803 [28]) was “Active” and the Activity (MGC-803 [29]) was 12.6%.
